The structures appear in SMILES notation.

The text below walks through data of publication PMC2784146 (Nature, 2009).

For data set [1] the following is noted: average; cited from earlier work.
A further data set deals with Histamine H4 receptor (Homo sapiens, UniProt Q9H3N8). Description: biochemical. The data set is classed as binding.
A further data set has as its system adrenergic α2. To be noted: ref Supplementary Table 3; cited from earlier work.
The target of the next data set is μ Opioid receptor (Homo sapiens, UniProt P35372). The data set is described as follows: biochemical. The data set is classed as binding.
The next data set has as its target σ1 receptor. As to conditions: read-out: Kd for σ1; cited from earlier work.
A further data set addresses human 5-HT2A receptor (Homo sapiens, UniProt P28223). Description: cell-based.
The next data set deals with hERG channel. To be noted: cited from earlier work.
The target in a further data set is T1, α2A adrenergic receptor (Homo sapiens, UniProt P08913).
T1 sequence (P08913 1-465): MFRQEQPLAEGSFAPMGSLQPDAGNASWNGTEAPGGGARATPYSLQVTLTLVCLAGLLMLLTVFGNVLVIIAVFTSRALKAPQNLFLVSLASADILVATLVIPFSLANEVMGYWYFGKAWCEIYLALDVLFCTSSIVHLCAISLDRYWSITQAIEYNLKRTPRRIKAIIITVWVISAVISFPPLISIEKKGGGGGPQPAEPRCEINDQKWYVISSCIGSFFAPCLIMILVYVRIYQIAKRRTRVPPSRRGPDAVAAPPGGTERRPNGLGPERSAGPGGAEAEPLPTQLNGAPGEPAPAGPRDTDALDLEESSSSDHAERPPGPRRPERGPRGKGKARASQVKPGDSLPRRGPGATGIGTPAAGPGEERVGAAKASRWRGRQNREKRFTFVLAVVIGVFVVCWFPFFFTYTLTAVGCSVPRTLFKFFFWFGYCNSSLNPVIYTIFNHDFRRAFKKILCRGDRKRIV
The data set is described as follows: Radioligand competition binding, α2A.

A further data set relates to carbonic anhydrase II. As to conditions: ref WOMBAT (26); cited from earlier work.
The next data set deals with 5-HT1D receptor (Homo sapiens, UniProt P28221). To be noted: ref Supplementary Table 3; cited from earlier work.
Chain of 5-HT1D receptor (P28221 whole entry): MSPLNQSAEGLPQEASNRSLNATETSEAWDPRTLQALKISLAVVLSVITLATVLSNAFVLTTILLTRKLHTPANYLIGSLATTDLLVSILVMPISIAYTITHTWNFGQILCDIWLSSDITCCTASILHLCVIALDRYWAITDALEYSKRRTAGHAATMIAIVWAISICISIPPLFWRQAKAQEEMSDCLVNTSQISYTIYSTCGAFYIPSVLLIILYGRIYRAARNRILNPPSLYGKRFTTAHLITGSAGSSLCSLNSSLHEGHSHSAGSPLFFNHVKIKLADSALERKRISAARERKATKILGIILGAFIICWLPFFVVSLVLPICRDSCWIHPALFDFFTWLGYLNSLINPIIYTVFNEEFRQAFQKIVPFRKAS

Chain of μ Opioid receptor (P35372 whole entry, species assumed): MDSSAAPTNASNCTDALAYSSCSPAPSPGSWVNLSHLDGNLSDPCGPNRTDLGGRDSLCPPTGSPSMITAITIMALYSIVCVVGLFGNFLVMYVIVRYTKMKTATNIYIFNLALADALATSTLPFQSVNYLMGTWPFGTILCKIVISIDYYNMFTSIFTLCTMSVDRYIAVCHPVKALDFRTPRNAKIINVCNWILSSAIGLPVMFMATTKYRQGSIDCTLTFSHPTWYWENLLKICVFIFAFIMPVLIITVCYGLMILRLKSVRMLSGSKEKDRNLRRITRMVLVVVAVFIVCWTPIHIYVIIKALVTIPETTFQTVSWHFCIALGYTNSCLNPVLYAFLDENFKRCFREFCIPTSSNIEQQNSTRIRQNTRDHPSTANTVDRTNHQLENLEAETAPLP
Chain of human 5-HT2A receptor (P28223 whole entry): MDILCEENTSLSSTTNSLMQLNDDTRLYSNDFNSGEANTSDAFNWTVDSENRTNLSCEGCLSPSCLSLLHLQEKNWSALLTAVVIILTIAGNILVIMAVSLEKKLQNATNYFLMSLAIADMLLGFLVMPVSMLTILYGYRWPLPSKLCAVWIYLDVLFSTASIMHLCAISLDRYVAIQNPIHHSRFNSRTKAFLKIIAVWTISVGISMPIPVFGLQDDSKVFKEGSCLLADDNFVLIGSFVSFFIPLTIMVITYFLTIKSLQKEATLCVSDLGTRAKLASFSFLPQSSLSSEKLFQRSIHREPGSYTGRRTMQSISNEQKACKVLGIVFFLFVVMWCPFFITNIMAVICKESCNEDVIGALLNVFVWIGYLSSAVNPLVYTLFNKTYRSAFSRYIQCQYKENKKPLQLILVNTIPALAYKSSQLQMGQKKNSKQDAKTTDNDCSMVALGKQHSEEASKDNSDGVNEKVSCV
Chain of Histamine H4 receptor (Q9H3N8 whole entry, species assumed): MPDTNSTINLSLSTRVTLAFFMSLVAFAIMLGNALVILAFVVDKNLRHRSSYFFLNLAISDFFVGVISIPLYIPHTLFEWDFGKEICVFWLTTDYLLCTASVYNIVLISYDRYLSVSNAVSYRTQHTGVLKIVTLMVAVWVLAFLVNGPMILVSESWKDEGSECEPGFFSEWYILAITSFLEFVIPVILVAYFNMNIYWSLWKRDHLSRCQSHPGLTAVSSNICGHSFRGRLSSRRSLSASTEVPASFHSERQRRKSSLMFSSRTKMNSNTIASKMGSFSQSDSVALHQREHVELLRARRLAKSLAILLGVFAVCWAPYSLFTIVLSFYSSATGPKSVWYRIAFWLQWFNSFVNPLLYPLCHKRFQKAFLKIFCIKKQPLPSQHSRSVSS

On to `CC(C)Nc1cccnc1N1CCN(C(=O)c2cc3cc(NS(C)(=O)=O)ccc3[nH]2)CC1` [Rescriptor, Delavirdine], for which the “steady-state plasma concentration Cmin” value in data set [1] was 15 µM. Moreover, the inhibition constant Ki at Histamine H4 receptor was 5.3 µM. As for `CCN(CC)C(=O)N[C@H]1C=C2c3cccc4[nH]cc(c34)C[C@H]2N(C)C1` [Revanil, lisuride], in the data set on adrenergic α2, the “reported to bind adrenergic α2 at” value is 0.055 nM.

In turn, `CC(C(O)c1ccc(O)cc1)N1CCC(Cc2ccccc2)CC1` (stereo not shown) [Vadilex, Ifenprodil] displayed an inhibition constant (Ki) on μ Opioid receptor of 1.4 µM.

Turning to `CN(C)CCc1c[nH]c2ccccc12` [DMT, N,N-dimethyltryptamine], the Kd at σ1 receptor is 14.8 µM. At human 5-HT2A receptor, this compound came in with an EC50 of 0.118 ± 0.029 µM. As to `O=c1[nH]c2ccccc2n1CCCN1CCC(n2c(=O)[nH]c3cc(Cl)ccc32)CC1` [Motilium], the IC50 in the data set on hERG channel is 5 µM. Turning to `COc1cc2c(cc1OC)C1CC(=O)C(CC(C)C)CN1CC2` (stereo not shown) [Xenazine], at α2A adrenergic receptor, the Ki came out at 0.96 µM. For the compound `CCN[C@H]1CN(CCCOC)S(=O)(=O)c2sc(S(N)(=O)=O)cc21` [Azopt, brinzolamide], the “binds carbonic anhydrase II at” value in the data set with carbonic anhydrase II is on record as 3 nM.

As to `CCCN1C[C@H](CSC)C[C@@H]2c3cccc4[nH]cc(c34)C[C@H]21` [Permax, pergolide], the “reported to bind the 5-HT1D receptor at” value at 5-HT1D receptor is 13 nM.

The Ki is the dissociation constant of the complex between target and ligand, obtained from inhibition or displacement. One may read the Kd as the concentration at which binding is half-saturated. What is called EC50 is the concentration needed to bring the measured effect to its halfway point. Low readings indicate an effect from little substance, high ones a need for much substance. A word on the IC50: it is the concentration that gives 50% inhibition.
